Experimental findings from US20080103151A9, “Heterocyclic compounds and their uses as therapeutic agents” (Xenon Pharmaceuticals Inc., priority 2005, published 2008) are described below.

The structures appear in SMILES notation.

Usually melting point stands for the temperature of the solid-liquid transition.

A short description of data set [1]: Stability of the isolated solid in the air. Format: physicochemical. Particulars: white solid, turned to red in the air. On the procedure:
A mixture of 3-hydroxy-3-(6-hydroxy-1,3-benzodioxol-5-yl)-1-pentyl-1,3-dihydro-2H-pyrrolo[3,2-c]pyridin-2-one (0.15 g, 0.42 mmol), triethylsilane (1.60 mL, 10.0 mmol) and trifluroacetic acid (0.74 mL, 10.0 mmol) was stirred at ambient temperature overnight. The mixture was diluted with ethyl acetate (100 mL), washed with water, dried over anhydrous sodium sulfate and filtered. The filtrate was concentrated in vacuo. The residue was triturated with diethyl ether to give the title compound as a white solid (not stable, turned to red in the air): MS (ES+) m/z 341.4 (M+1).

In data set [2] the test system is Nav1.4 and 1.5 (L6 rat myoblast cell). Format: cell-based.
The target of data set [3] is Nav1.2 (PC12 pheochromocytoma) (Rattus norvegicus, UniProt P04775).
Sequence of Nav1.2 (PC12 pheochromocytoma) (P04775 whole entry, looked up): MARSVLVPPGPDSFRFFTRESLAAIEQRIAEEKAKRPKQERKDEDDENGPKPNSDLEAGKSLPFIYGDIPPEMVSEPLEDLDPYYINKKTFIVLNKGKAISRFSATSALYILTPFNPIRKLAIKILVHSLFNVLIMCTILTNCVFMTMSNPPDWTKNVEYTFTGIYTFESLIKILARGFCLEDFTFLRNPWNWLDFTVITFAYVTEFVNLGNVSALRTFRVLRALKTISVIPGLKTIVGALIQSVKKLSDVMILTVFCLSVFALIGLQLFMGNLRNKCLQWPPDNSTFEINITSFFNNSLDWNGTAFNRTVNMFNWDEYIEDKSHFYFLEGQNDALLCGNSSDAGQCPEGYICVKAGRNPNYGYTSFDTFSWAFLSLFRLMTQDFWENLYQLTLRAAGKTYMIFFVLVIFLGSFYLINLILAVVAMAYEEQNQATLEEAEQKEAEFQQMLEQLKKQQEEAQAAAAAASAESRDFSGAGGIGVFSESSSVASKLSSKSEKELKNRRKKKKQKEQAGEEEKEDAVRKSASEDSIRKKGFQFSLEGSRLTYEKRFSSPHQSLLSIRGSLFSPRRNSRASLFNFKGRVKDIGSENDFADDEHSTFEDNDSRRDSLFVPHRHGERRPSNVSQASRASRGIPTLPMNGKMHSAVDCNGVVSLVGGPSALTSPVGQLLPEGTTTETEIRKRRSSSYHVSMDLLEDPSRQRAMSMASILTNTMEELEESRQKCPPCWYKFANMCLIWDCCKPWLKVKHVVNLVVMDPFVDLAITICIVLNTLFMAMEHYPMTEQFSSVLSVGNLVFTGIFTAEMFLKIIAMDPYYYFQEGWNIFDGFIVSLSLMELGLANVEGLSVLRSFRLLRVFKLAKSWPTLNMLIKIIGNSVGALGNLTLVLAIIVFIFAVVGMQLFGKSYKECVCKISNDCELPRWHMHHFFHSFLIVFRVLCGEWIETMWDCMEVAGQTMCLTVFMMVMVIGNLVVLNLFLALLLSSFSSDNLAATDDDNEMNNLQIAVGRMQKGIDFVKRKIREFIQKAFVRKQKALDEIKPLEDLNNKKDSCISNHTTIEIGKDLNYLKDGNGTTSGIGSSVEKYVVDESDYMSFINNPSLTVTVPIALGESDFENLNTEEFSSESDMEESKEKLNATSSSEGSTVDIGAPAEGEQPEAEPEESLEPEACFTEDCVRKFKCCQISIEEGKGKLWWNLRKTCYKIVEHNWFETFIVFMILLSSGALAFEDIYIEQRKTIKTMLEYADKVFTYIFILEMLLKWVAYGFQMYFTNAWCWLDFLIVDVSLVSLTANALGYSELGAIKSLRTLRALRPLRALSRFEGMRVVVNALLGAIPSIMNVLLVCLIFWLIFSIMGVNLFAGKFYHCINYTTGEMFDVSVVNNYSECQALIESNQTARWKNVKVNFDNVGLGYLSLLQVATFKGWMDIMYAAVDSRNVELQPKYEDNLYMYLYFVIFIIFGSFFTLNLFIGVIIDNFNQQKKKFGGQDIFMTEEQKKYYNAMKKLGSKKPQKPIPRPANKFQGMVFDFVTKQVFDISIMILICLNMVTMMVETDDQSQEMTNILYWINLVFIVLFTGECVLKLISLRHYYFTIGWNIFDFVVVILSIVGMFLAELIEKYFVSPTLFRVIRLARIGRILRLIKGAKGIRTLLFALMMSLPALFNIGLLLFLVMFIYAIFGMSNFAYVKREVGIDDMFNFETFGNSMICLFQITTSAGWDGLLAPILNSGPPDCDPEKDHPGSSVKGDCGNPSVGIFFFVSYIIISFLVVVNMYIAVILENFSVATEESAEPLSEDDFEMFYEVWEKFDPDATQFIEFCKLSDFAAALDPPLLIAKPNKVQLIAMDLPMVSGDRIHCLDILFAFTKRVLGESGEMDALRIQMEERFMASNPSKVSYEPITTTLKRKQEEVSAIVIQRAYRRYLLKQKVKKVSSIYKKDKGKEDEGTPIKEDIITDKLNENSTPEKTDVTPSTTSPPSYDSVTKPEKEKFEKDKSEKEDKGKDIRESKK
Data set [4] concerns the target NaV1.8 (SK-N-BE2C neuroblastoma cell line) (Homo sapiens, UniProt Q9Y5Y9). Format: cell-based.
For the next data set, the target named is Nav1.4 (CHO-K1 cells) (Cricetulus griseus, UniProt A0A9J7H6F9). The format is cell-based, Chinese Hamster.
Sequence of Nav1.4 (CHO-K1 cells) (A0A9J7H6F9 1-1930): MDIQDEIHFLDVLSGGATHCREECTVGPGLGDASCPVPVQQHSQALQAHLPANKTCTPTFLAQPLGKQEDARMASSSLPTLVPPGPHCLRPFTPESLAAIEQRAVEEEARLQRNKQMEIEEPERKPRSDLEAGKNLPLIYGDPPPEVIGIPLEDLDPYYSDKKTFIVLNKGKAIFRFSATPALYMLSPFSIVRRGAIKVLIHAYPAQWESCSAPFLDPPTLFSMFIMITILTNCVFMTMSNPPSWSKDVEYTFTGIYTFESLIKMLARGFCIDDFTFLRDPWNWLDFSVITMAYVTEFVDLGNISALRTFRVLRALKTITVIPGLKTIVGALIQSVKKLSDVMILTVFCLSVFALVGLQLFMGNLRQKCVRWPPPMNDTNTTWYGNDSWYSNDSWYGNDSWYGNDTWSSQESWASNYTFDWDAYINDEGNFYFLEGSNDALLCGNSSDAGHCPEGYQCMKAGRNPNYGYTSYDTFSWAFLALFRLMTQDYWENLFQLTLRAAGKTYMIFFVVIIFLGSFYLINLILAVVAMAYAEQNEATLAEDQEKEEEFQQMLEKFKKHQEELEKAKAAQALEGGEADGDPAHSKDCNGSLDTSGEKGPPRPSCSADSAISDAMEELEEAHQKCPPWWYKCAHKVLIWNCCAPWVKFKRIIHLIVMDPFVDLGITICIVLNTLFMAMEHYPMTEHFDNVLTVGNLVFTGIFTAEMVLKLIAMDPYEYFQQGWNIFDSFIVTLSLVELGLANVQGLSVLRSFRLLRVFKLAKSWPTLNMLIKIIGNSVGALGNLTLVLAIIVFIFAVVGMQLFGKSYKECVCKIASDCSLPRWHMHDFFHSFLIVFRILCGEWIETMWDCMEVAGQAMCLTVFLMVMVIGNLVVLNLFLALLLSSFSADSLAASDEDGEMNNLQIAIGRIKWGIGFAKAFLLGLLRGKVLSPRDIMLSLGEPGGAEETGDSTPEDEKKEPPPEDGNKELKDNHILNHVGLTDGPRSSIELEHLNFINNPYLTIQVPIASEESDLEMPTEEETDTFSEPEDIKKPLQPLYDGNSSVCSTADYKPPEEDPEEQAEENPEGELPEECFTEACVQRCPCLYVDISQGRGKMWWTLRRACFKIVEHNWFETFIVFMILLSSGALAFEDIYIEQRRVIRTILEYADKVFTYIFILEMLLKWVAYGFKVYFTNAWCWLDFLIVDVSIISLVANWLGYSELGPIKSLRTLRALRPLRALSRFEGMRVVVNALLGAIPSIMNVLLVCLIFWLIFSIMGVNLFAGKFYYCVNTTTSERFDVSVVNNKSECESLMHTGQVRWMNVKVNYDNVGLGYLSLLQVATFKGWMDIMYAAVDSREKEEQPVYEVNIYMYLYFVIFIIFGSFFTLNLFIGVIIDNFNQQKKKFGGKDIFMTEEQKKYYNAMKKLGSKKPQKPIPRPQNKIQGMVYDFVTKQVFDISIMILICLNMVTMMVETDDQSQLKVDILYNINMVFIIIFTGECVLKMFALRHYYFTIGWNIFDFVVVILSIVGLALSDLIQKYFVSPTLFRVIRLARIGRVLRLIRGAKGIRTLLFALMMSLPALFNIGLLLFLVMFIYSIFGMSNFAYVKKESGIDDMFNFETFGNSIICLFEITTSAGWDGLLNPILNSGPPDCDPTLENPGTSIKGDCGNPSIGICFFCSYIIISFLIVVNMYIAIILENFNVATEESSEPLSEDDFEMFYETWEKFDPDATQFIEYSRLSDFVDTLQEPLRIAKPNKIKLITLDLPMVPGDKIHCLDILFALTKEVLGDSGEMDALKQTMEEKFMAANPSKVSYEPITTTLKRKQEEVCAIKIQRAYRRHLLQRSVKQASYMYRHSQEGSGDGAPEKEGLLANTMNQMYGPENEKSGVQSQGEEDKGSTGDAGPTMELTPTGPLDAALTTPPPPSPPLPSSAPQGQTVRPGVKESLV

For the compound `CCCCCN1C(=O)C(c2cc3c(cc2O)OCO3)c2cnccc21` (centres unmarked) [Example 10, 3-(6-hydroxy-1,3-benzodioxol-5-yl)-1-pentyl-1,3-dihydro-2H-pyrrolo[3,2-c]pyridin-2-one], in data set [1], the “stability of the solid in the air” value was “not stable”. `CCCCCN1C(=O)C(O)(c2cc3c(cc2O)OCO3)c2cnccc21` (centres unmarked) had a melting point of 193 to 195 °C.

For the compound `CCCCCN1C(=O)C(O)(c2ccc3c(c2)OCO3)c2cccnc21` (centres unmarked), the melting point fell in the range of 104 to 105 °C.

`CCCCCN1C(=O)C(c2ccc3c(c2)OCO3)c2cccnc21` (centres unmarked) [Example 17, 3-(1,3-benzodioxol-5-yl)-1-pentyl-1,3-dihydro-2H-pyrrolo[2,3-b]pyridin-2-one] came in with a melting point of 75 to 77 °C. For `NC1=N[C@H](O)[C@H]2[C@H]3O[C@]4(O)O[C@@H]([C@@H](O)[C@@]2(N1)[C@@H]4O)[C@]3(O)CO` [TTX, tetrodotoxin], the “block of [^14C] Guanidine influx by TTX” value in data set [2] is “partially blocked by TTX (Nav1.5”; in data set [3], “Guanidine influx was completely”; in data set [4], “TTX partially blocked influx”; at Nav1.4 (CHO-K1 cells), “Guanidine influx was completely”.
